Test results: US12409172B2, “Dosage regimen” (UNION therapeutics A/S, priority 2023, dated 2025)

Experiments:
[1] = tested on: adults with moderate-to-severe plaque-type psoriasis; assay: Phase 2b dose-ranging study in psoriasis (Example 3): treatment-emergent adverse events and discontinuations; format: in vivo, human
Text: • Percentage change in Psoriasis […] and Severity Index (PASI) score from Baseline at Week 16. Key Secondary Endpoints • Patients achieving 75% reduction in PASI (PASI75) response at Week 16. • Patients achieving a score of Clear (0) or Almost Clear (1) and an at least 2-point improvement in Investigator Global Assessment (IGA) at Week 16. […] Safety Endpoints: • The occurrence, severity, and seriousness of treatment-emergent adverse events (TEAEs) reported over the 16-week Treatment Period and the 4-week Follow-up Period. • Changes from Baseline in physical examination; vital sign measurements (body temperature, respiration rate, heart rate, and systolic and diastolic blood pressure measurements); and body weight over the 16-week Treatment Period and the 4-week Follow-up Period. • Changes from Baseline in electrocardiogram (ECG) findings over the 16-week Treatment Period and the 4-week Follow-up Period. • Changes from Baseline in safety laboratory values (haematology, serum chemistry, and urinalysis) over the 16-week Treatment Period and the 4-week Follow-up Period. • Hospital Anxiety and Depression Scale at each visit except Week 2. • Columbia-Suicide Severity Rating Scale (C-SSRS) at each visit except Weeks 1 and 2. Exploratory Endpoints: • Change from Baseline in Physician's Global Assessment of Fingernails (PGA-F) at Week 16. • Change in Scalp-Specific Investigator Global Assessment (ss-IGA) from Baseline at Week 16 in the subgroup of patients with Baseline score of at least 2 (mild scalp psoriasis). • Change from Baseline of scalp itch Numeric Rating Scale (NRS) at Week 16 in the subgroup of patients with Baseline score of at least 4 on the 11-point NRS. • Change from Baseline in joint pain NRS at Week 16 in patients with psoriatic arthritis (PsA) and a Baseline joint pain score of at least 4. • Change in cardiovascular risk factors at Week 16. The following parameters will be collected: weight, body mass index, waist and hip circumferences, blood pressure, fasting serum glucose, triglycerides, cholesterol (total and high-density lipoprotein/low-density lipoprotein fractions), and C-reactive protein. • Change from Baseline in skin biomarkers at Week 16 collected via tape stripping and analysed using proteomic methods. • Plasma levels of the drug and its metabolites at scheduled visits. Study Design
At Baseline and each visit from Week 4 onwards, PASI, BSA, IGA, and PSS were assessed. Quality of life was assessed by administration of DLQI at Baseline and at Weeks 16 and 20 visits. Additional efficacy parameters include: an ss-IGA, a Physician Global Assessment of fingernail psoriasis (PGA-F), and patient's joint pain NRS for those with a diagnosis of PsA. These parameters were assessed at Baseline and Weeks 16 and 20. Safety evaluations include adverse events (Aes), laboratory and vital sign assessments, physical examinations, as well as mood change evaluation by patient (Hospital Anxiety and Depression Scale) and suicidal ideation evaluation by Investigator (C-SSRS). A panel of cardiovascular risk factors were assessed at Baseline and Week 16.

[2] = tested on: human peripheral blood mononuclear cells PBMC; details: in vitro; cited from earlier work
[3] = tested on: TNF-α secretion from human whole blood; details: in vitro; cited from earlier work
[4] = tested on: TNF-α secretion from human whole blood; assay: LPS and SEB-induced TNF-α secretion from human whole blood; format: cell-based; details: average; both LPS and SEB-induced TNF-α secretion from human whole blood
[5] = tested on: PDE4B and PDE4D subtype splice variants; details: in vitro; cited from earlier work

O=C(Cc1c(Cl)c[n+]([O-])cc1Cl)c1ccc(OC(F)F)c2c1OC1(CCS(=O)(=O)CC1)O2 [orismilast, 2-(3,5-dichloro-1-oxidopyridin-1-ium-4-yl)-1-[7-(difluoromethoxy)-1′,1′-dioxospiro[1,3-benzodioxole-2,4′-thiane]-4-yl]ethanone]
Abdominal pain upper, adverse event leading to treatment discontinuation ([1]; 20 mg BID): 2.1% | Abdominal pain upper, treatment-emergent adverse event ([1]; 20 mg BID): 2.1% | Diarrhea (incl. loose stool), adverse event leading to treatment discontinuation ([1]; 20 mg BID): 10.4% | Diarrhea (incl. loose stool), treatment-emergent adverse event ([1]; 20 mg BID): 37.5% | Dizziness, adverse event leading to treatment discontinuation ([1]; 20 mg BID): 2.1% | Dizziness, treatment-emergent adverse event ([1]; 20 mg BID): 6.3% | Headache, adverse event leading to treatment discontinuation ([1]; 20 mg BID): 2.1% | Headache, treatment-emergent adverse event ([1]; 20 mg BID): 12.5% | Nausea, adverse event leading to treatment discontinuation ([1]; 20 mg BID): 4.2% | Nausea, treatment-emergent adverse event ([1]; 20 mg BID): 22.9% | Vomiting, adverse event leading to treatment discontinuation ([1]; 20 mg BID): 0% | Vomiting, treatment-emergent adverse event ([1]; 20 mg BID): 6.3% | discontinuations due to adverse events ([1]; 20 mg BID): 21% | Abdominal pain upper, adverse event leading to treatment discontinuation ([1]; 30 mg BID): 2.0% | Abdominal pain upper, treatment-emergent adverse event ([1]; 30 mg BID): 6.0% | Diarrhea (incl. loose stool), adverse event leading to treatment discontinuation ([1]; 30 mg BID): 6.0% | Diarrhea (incl. loose stool), treatment-emergent adverse event ([1]; 30 mg BID): 48.0% | Dizziness, adverse event leading to treatment discontinuation ([1]; 30 mg BID): 2.0% | Dizziness, treatment-emergent adverse event ([1]; 30 mg BID): 14.0% | Headache, adverse event leading to treatment discontinuation ([1]; 30 mg BID): 4.0% | Headache, treatment-emergent adverse event ([1]; 30 mg BID): 26.6% | Nausea, adverse event leading to treatment discontinuation ([1]; 30 mg BID): 8.0% | Nausea, treatment-emergent adverse event ([1]; 30 mg BID): 38.0% | Vomiting, adverse event leading to treatment discontinuation ([1]; 30 mg BID): 2.0% | Vomiting, treatment-emergent adverse event ([1]; 30 mg BID): 8.0% | discontinuations due to adverse events ([1]; 30 mg BID): 20% | Abdominal pain upper, adverse event leading to treatment discontinuation ([1]; 40 mg BID): 7.5% | Abdominal pain upper, treatment-emergent adverse event ([1]; 40 mg BID): 11.3% | Diarrhea (incl. loose stool), adverse event leading to treatment discontinuation ([1]; 40 mg BID): 20.8% | Diarrhea (incl. loose stool), treatment-emergent adverse event ([1]; 40 mg BID): 45.3% | Dizziness, adverse event leading to treatment discontinuation ([1]; 40 mg BID): 1.9% | Dizziness, treatment-emergent adverse event ([1]; 40 mg BID): 15.1% | Headache, adverse event leading to treatment discontinuation ([1]; 40 mg BID): 3.8% | Headache, treatment-emergent adverse event ([1]; 40 mg BID): 20.8% | Nausea, adverse event leading to treatment discontinuation ([1]; 40 mg BID): 11.3% | Nausea, treatment-emergent adverse event ([1]; 40 mg BID): 41.5% | Vomiting, adverse event leading to treatment discontinuation ([1]; 40 mg BID): 5.7% | Vomiting, treatment-emergent adverse event ([1]; 40 mg BID): 13.2% | secretion of Th1 (TNFα and IFNγ), Th17 (IL-22 and IL-23) and Th2 (IL-4, IL-5, and IL-13) related cytokines in PBMC [2]: inhibited | production of tumour necrosis factor α (TNFα) in human whole blood and PBMC [3]: inhibited | potency relative to apremilast on a molar basis [4]: 23 times | inhibition of PDE4B and PDE4D subtype splice variants [5]: potent inhibitor
